Test results taken from patent publication US8192962B2, “Processes for detecting toxic substances” (Daikin Industries, Ltd., priority 2001, dated 2012).

System: Genes belonging to other category
Experiment: DNA chip mRNA expression in yeast, genes belonging to other category (Table 9)
Type: cell-based, Saccharomyces cerevisiae S288C
Procedure: Yeast (Saccharomyces cerevisiae S288C (α SUC2mal mel gap2 CUP1)) were incubated at 25° C. on YPD medium (yeast extract 1%, polypepton 2%, glucose 2%). One of toxic chemical substances was added to the cells at logarithmic growth phase, and the cells were further incubated for two hours. Cells were cultured without any chemical substance in the same condition, and were used as control. Concentrations of the chemical substances were defined to inhibit the growth of the yeast but not lead to death.
After completion of the incubation, the culture was centrifuged to collect the cells. To the cells, sodium acetate buffer (50 mM sodium acetate, 10 mM EDTA, 1% SDS) was added, and the mixture was shaken at 65° C. for five minutes, followed by returning to room temperature, and obtaining the supernatant, of which the procedures were repeated two times. To the supernatant, ½ amount of a solution of phenol/chloroform was added, and the mixture was centrifuged to give a supernatant, which was added with an equal amount of chloroform, and the mixture was centrifuged to give a supernatant. To the supernatant, an equal amount of isopropanol containing 0.3 M sodium acetate was added, and the mixture was allowed to stand at room temperature for 30 minutes, after which the mixture was centrifuged to give a sediment of the whole RNAs. Seventy % ethanol was added to the sediment, and the mixture was again centrifuged to give a sediment, which was then dried and dissolved in water. mRNA was isolated from the whole RNAs as followings. In view of the fact that a poly A chain is attached to the 3′ terminus of mRNA, a polynucleotide having a poly T structure which was immobilized on the surface of latex beads was used to trap the mRNA, and then the mRNA was washed and eluted with spine column (Oligotex-dT30<Super>mRNA Purification Kit, Takara). Reverse transcription of the mRNA was conducted with a reverse transcriptase (Super Script II Reverse Transcriptase; catalogue No. 18064-014, GibcoBRL) using fluorescence-labeled nucleotides to give cDNAs that were introduced with Cy3-dUTP or Cy5-dUTP during the reverse transcription.
The labeled cDNAs were dissolved in TE buffer (10mM Tris-HCl/1 mM EDTA, pH8.0), and the solution was dropped on the DNA chip containing the whole genes of yeast (DNA Chip Research Inc. Japan) so that the cDNAs were hybridized on the DNA chip at 65° C. for over 12 hours. The fluoresces intensity of the DNA chip was read with a scanner, and the ratio relative to the fluorescence intensity resulting from the absence of chemical substance was estimated as the following, which is shown in Tables 1 to 9: […]

CCCCCCCCCCCCc1ccc(S(=O)(=O)[O-])cc1.[Na+] [(17), sodium dodecylbenzosulfonate]
The level of expressed mRNA in the presence of chemical substance/The level of expressed mRNA in the absence of chemical substance (yeast gene YAR010C): 1.5
The level of expressed mRNA in the presence of chemical substance/The level of expressed mRNA in the absence of chemical substance (yeast gene YBL005W-A): 1.3
The level of expressed mRNA in the presence of chemical substance/The level of expressed mRNA in the absence of chemical substance (yeast gene YBL041W): 1.3
The level of expressed mRNA in the presence of chemical substance/The level of expressed mRNA in the absence of chemical substance (yeast gene YBL043W): 2.3
The level of expressed mRNA in the presence of chemical substance/The level of expressed mRNA in the absence of chemical substance (yeast gene YBL078C): 1.8
The level of expressed mRNA in the presence of chemical substance/The level of expressed mRNA in the absence of chemical substance (yeast gene YBR214W): 1.1
The level of expressed mRNA in the presence of chemical substance/The level of expressed mRNA in the absence of chemical substance (yeast gene YCL020W): 0.9
The level of expressed mRNA in the presence of chemical substance/The level of expressed mRNA in the absence of chemical substance (yeast gene YCL027W): 0.7
The level of expressed mRNA in the presence of chemical substance/The level of expressed mRNA in the absence of chemical substance (yeast gene YCR004C): 1.4
The level of expressed mRNA in the presence of chemical substance/The level of expressed mRNA in the absence of chemical substance (yeast gene YCR071C): 1.2
The level of expressed mRNA in the presence of chemical substance/The level of expressed mRNA in the absence of chemical substance (yeast gene YCR088W): 1.4
The level of expressed mRNA in the presence of chemical substance/The level of expressed mRNA in the absence of chemical substance (yeast gene YDL008W): 1.5
The level of expressed mRNA in the presence of chemical substance/The level of expressed mRNA in the absence of chemical substance (yeast gene YDL238C): 1.1
The level of expressed mRNA in the presence of chemical substance/The level of expressed mRNA in the absence of chemical substance (yeast gene YDR055W): 2.0
The level of expressed mRNA in the presence of chemical substance/The level of expressed mRNA in the absence of chemical substance (yeast gene YDR084C): 2.0
The level of expressed mRNA in the presence of chemical substance/The level of expressed mRNA in the absence of chemical substance (yeast gene YDR085C): 1.3
The level of expressed mRNA in the presence of chemical substance/The level of expressed mRNA in the absence of chemical substance (yeast gene YDR104C): 0.9
The level of expressed mRNA in the presence of chemical substance/The level of expressed mRNA in the absence of chemical substance (yeast gene YDR115W): 1.2
The level of expressed mRNA in the presence of chemical substance/The level of expressed mRNA in the absence of chemical substance (yeast gene YDR259C): 1.0
The level of expressed mRNA in the presence of chemical substance/The level of expressed mRNA in the absence of chemical substance (yeast gene YDR315C): 1.2
The level of expressed mRNA in the presence of chemical substance/The level of expressed mRNA in the absence of chemical substance (yeast gene YDR358W): 1.9
The level of expressed mRNA in the presence of chemical substance/The level of expressed mRNA in the absence of chemical substance (yeast gene YDR388W): 1.2
The level of expressed mRNA in the presence of chemical substance/The level of expressed mRNA in the absence of chemical substance (yeast gene YDR432W): 0.7
The level of expressed mRNA in the presence of chemical substance/The level of expressed mRNA in the absence of chemical substance (yeast gene YDR481C): 1.2
The level of expressed mRNA in the presence of chemical substance/The level of expressed mRNA in the absence of chemical substance (yeast gene YDR510W): 1.1
The level of expressed mRNA in the presence of chemical substance/The level of expressed mRNA in the absence of chemical substance (yeast gene YEL042W): 0.7
The level of expressed mRNA in the presence of chemical substance/The level of expressed mRNA in the absence of chemical substance (yeast gene YEL066W): 1.0
The level of expressed mRNA in the presence of chemical substance/The level of expressed mRNA in the absence of chemical substance (yeast gene YER039C): 1.7
The level of expressed mRNA in the presence of chemical substance/The level of expressed mRNA in the absence of chemical substance (yeast gene YER107C): 1.1
The level of expressed mRNA in the presence of chemical substance/The level of expressed mRNA in the absence of chemical substance (yeast gene YER130C): 3.0
The level of expressed mRNA in the presence of chemical substance/The level of expressed mRNA in the absence of chemical substance (yeast gene YFL022C): 0.9
The level of expressed mRNA in the presence of chemical substance/The level of expressed mRNA in the absence of chemical substance (yeast gene YFL028C): 1.2
The level of expressed mRNA in the presence of chemical substance/The level of expressed mRNA in the absence of chemical substance (yeast gene YFL043C): 1.5
The level of expressed mRNA in the presence of chemical substance/The level of expressed mRNA in the absence of chemical substance (yeast gene YGL158W): 0.8
The level of expressed mRNA in the presence of chemical substance/The level of expressed mRNA in the absence of chemical substance (yeast gene YGL229C): 1.1
The level of expressed mRNA in the presence of chemical substance/The level of expressed mRNA in the absence of chemical substance (yeast gene YGR136W): 1.3
The level of expressed mRNA in the presence of chemical substance/The level of expressed mRNA in the absence of chemical substance (yeast gene YGR189C): 2.3
The level of expressed mRNA in the presence of chemical substance/The level of expressed mRNA in the absence of chemical substance (yeast gene YGR213C): 12.8
The level of expressed mRNA in the presence of chemical substance/The level of expressed mRNA in the absence of chemical substance (yeast gene YGR257C): 1.1
The level of expressed mRNA in the presence of chemical substance/The level of expressed mRNA in the absence of chemical substance (yeast gene YHR004C): 1.4
The level of expressed mRNA in the presence of chemical substance/The level of expressed mRNA in the absence of chemical substance (yeast gene YHR071W): 2.6
The level of expressed mRNA in the presence of chemical substance/The level of expressed mRNA in the absence of chemical substance (yeast gene YHR139C): 1.4
The level of expressed mRNA in the presence of chemical substance/The level of expressed mRNA in the absence of chemical substance (yeast gene YHR142W): 1.3
The level of expressed mRNA in the presence of chemical substance/The level of expressed mRNA in the absence of chemical substance (yeast gene YIL123W): 1.3
The level of expressed mRNA in the presence of chemical substance/The level of expressed mRNA in the absence of chemical substance (yeast gene YIL140W): 0.7
The level of expressed mRNA in the presence of chemical substance/The level of expressed mRNA in the absence of chemical substance (yeast gene YJL073W): 1.1
The level of expressed mRNA in the presence of chemical substance/The level of expressed mRNA in the absence of chemical substance (yeast gene YJL089W): 1.2
The level of expressed mRNA in the presence of chemical substance/The level of expressed mRNA in the absence of chemical substance (yeast gene YJL116C): 1.2
The level of expressed mRNA in the presence of chemical substance/The level of expressed mRNA in the absence of chemical substance (yeast gene YJR004C): 0.4
The level of expressed mRNA in the presence of chemical substance/The level of expressed mRNA in the absence of chemical substance (yeast gene YJR086W): 1.4
